This note sets out measurements from ChEMBL document CHEMBL5465560, “Selectivity Literature for EUbOPEN Chemogenomic Library” (2024).

Assay [1] has as its target T1, Serine/threonine-protein kinase RIO1 (Homo sapiens) (UniProt Q9BRS2).
T1 sequence (whole entry): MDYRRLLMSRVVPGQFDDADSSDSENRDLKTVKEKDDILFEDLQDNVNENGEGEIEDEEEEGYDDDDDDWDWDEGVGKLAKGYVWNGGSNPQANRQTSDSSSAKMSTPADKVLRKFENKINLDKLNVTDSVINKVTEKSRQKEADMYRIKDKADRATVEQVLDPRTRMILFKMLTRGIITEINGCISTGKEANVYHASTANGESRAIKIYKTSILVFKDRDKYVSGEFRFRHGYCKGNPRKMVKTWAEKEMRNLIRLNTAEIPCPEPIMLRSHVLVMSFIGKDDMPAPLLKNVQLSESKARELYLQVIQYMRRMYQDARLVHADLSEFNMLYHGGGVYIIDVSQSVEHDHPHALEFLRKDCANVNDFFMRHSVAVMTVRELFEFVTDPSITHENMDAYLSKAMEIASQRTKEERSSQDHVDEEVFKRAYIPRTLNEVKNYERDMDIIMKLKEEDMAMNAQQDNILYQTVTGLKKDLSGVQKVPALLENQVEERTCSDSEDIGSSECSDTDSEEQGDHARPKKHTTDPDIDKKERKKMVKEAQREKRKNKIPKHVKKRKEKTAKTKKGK
Put plainly: Selectivity interaction (KinomeScan (DiscoverX)) EUB0000607a RIOK1. The settings on record: at 10 µM.

Assay [2] has as its target T2, Cyclin-dependent kinase 11A (Homo sapiens) (UniProt Q9UQ88).
T2 sequence (whole entry): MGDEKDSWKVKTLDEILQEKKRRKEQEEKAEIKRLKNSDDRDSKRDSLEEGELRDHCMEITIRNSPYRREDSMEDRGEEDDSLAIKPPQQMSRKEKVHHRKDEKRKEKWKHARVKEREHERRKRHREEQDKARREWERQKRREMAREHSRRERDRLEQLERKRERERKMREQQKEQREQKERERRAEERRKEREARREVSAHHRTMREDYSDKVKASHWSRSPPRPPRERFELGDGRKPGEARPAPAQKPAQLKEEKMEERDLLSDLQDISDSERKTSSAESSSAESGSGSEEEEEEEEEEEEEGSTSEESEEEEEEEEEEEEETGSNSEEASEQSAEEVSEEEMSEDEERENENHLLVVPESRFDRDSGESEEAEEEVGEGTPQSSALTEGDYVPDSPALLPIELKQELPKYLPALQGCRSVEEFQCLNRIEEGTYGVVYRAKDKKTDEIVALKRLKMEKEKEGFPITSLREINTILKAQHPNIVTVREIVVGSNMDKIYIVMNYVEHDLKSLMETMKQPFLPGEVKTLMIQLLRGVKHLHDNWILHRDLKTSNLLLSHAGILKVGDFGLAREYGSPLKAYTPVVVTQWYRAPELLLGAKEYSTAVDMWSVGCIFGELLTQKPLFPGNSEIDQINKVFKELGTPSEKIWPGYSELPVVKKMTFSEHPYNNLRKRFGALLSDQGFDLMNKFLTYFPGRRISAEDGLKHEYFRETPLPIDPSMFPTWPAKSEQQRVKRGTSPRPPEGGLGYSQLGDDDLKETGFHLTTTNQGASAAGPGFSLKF
The note with it: at 10 µM.

Assay [3] deals with Phosphatidylinositol 4-kinase alpha (Homo sapiens, UniProt P42356). Put plainly: Selectivity interaction (ActivX KiNativ screen (ex vivo kinase selectivity in human PBMCs)) EUB0001619a PI4KA. It counts as cell-based. The note with it: PBMC, at 1 µM.
Assay [4] has as its target Tyrosine-protein kinase SYK (Homo sapiens, UniProt P43405). Put plainly: Selectivity interaction (ActivX KiNativ screen (ex vivo kinase selectivity in human PBMCs)) EUB0001619a SYK. The settings on record: PBMC, at 1 µM. It counts as cell-based.
Assay [5] addresses T3, Mitogen-activated protein kinase kinase kinase kinase 2 (Homo sapiens) (UniProt Q12851).
T3 sequence (whole entry): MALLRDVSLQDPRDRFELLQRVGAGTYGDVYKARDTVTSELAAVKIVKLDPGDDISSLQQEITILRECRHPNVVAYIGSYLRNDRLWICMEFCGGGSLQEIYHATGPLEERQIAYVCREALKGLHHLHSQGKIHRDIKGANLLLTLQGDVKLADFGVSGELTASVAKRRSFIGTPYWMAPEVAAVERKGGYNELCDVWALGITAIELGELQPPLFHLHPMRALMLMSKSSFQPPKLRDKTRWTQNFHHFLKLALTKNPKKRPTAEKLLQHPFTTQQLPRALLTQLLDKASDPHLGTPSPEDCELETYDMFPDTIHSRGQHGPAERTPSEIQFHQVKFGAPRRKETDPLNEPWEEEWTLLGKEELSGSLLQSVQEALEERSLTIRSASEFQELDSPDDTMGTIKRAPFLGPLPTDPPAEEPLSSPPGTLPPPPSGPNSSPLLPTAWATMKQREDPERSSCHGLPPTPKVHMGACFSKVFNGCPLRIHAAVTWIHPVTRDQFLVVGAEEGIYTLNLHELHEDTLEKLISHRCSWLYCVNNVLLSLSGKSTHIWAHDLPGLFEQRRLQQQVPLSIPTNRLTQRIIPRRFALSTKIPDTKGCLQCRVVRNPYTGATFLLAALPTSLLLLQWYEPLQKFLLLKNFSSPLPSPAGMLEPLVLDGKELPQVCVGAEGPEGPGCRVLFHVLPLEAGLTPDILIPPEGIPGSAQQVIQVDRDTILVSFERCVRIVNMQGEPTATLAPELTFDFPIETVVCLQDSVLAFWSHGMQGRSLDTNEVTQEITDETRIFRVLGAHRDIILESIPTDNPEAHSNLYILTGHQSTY
Put plainly: Selectivity interaction (ActivX KiNativ screen (kinase selectivity in THP-1 cell lysates)) EUB0000639a MAP4K2. It counts as subcellular. The note with it: lysate, at 5 µM.

The target of assay [6] is Serine/threonine-protein kinase 10 (Homo sapiens) (UniProt O94804). Put plainly: Selectivity interaction (KinomeScan (DiscoverX)) EUB0000695a STK10. The note with it: at 100 nM.
Chain of Serine/threonine-protein kinase 10 (Homo sapiens) (O94804 whole entry, looked up, the tested form may be a part): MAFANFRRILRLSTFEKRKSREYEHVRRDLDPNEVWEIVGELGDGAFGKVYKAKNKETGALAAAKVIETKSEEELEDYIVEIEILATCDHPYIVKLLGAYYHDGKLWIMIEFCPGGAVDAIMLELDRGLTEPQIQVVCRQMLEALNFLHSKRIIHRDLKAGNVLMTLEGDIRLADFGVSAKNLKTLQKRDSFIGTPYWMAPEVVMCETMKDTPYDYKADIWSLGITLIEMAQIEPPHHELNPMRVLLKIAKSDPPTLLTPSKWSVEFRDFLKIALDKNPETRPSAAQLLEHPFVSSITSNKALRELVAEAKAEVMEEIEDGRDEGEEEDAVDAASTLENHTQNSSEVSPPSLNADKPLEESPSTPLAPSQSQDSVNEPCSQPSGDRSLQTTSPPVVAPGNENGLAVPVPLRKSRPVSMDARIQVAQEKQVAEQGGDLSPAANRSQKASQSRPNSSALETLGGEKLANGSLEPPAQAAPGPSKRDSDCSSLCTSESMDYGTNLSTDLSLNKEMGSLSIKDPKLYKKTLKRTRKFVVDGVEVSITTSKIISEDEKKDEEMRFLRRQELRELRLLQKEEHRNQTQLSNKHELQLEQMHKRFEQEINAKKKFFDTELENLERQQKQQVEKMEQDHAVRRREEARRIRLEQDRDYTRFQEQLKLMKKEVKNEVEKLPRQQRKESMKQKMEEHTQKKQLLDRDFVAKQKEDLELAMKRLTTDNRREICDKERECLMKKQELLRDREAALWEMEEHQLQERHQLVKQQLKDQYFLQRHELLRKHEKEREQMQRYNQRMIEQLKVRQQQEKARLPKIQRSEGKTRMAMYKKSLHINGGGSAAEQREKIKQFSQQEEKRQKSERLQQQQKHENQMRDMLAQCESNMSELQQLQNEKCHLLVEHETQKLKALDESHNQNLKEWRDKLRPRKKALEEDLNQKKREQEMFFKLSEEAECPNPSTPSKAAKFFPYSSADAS
Assay [7] concerns the target Bromodomain adjacent to zinc finger domain protein 2B (Homo sapiens) (UniProt Q9UIF8). Put plainly: Selectivity interaction (Human bromodomain panel (DSF assay)) EUB0000233b BAZ2B. (DSF heats the sample and reads unfolding from a dye or from intrinsic fluorescence.)
Assay [8] addresses Serine/threonine-protein kinase Chk2 (Homo sapiens) (UniProt O96017). Put plainly: Selectivity interaction (KinomeScan (DiscoverX)) EUB0000092b CHEK2. The note with it: at 10 µM.
Assay [9] has as its target CDK9/cyclin T1 (Homo sapiens) (UniProt O60563+P50750). Put plainly: Selectivity interaction (Upstate Kinase Profiler service (Millipore)) EUB0000056c CDK9. It counts as protein-complex assay. The note with it: at 1 µM.

Chain of Bromodomain adjacent to zinc finger domain protein 2B (Homo sapiens) (Q9UIF8 whole entry, the tested form may be a part): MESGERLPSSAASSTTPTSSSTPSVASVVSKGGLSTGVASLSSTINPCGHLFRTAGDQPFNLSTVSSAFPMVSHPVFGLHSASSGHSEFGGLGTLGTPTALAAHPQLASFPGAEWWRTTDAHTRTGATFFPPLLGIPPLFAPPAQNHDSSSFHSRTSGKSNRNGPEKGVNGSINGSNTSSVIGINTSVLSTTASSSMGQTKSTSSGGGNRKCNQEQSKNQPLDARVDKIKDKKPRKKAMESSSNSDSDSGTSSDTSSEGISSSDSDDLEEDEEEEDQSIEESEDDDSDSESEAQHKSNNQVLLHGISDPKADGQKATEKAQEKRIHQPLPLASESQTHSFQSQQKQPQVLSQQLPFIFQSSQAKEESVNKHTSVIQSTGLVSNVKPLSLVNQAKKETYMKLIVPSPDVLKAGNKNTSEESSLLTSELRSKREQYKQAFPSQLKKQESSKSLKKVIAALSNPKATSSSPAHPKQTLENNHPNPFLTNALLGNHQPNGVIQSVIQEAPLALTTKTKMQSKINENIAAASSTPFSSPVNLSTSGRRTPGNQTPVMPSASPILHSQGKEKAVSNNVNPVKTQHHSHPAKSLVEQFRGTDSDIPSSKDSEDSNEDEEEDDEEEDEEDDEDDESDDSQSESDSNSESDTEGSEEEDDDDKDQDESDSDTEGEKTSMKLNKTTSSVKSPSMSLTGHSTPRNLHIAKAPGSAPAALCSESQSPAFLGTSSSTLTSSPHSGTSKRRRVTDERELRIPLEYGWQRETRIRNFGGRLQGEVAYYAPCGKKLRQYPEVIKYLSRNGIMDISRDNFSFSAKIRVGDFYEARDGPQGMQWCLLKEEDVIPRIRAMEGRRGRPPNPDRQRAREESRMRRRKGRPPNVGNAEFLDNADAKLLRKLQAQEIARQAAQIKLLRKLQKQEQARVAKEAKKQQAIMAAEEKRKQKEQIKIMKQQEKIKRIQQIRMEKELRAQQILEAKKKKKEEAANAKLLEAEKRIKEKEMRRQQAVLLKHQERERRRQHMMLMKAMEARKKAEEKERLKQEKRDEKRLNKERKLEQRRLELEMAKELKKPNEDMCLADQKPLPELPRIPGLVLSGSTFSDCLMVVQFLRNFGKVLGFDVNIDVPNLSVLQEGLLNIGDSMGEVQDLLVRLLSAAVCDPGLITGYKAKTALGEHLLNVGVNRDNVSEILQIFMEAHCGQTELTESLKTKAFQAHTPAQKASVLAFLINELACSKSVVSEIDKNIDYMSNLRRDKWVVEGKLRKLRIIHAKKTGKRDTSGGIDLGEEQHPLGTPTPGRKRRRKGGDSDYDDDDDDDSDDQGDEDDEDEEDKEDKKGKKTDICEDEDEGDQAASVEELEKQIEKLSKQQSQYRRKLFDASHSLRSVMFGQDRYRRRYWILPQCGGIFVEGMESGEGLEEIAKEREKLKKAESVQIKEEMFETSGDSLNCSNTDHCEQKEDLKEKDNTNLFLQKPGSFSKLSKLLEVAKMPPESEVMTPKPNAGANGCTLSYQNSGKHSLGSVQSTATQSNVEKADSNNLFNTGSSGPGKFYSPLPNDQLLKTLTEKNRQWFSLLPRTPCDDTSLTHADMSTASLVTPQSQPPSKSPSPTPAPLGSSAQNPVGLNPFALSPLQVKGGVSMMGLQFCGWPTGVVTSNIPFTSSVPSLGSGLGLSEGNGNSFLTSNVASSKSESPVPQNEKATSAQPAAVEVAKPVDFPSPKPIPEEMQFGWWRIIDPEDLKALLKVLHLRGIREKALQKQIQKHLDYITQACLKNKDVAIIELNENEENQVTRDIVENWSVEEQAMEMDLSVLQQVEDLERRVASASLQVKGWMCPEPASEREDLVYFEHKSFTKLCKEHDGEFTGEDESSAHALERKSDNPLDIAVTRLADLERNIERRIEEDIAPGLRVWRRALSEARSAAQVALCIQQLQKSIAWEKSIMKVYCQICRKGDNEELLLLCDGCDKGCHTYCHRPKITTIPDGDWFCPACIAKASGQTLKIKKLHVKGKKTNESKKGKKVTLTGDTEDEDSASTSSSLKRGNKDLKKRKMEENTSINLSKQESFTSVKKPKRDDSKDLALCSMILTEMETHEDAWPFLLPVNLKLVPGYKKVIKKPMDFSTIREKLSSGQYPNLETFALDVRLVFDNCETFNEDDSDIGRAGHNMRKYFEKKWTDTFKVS
Chain of Serine/threonine-protein kinase Chk2 (Homo sapiens) (O96017 whole entry): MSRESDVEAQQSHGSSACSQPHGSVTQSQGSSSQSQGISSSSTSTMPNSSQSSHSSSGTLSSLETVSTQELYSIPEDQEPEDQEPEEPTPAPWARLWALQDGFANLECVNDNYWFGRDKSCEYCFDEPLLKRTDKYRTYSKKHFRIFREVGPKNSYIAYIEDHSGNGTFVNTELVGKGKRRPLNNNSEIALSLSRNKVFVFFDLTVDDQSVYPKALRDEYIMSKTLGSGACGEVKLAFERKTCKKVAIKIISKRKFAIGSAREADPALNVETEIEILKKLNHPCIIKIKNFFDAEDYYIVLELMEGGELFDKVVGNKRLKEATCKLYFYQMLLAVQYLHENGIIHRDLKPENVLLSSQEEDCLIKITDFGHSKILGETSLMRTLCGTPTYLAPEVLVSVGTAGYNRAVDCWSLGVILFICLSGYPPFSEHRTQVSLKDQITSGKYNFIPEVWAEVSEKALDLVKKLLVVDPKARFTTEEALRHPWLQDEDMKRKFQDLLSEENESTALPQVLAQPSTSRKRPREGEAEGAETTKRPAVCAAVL

As for `CNC(=O)Nc1ccc(-c2nc(N3CC4CCC(C3)O4)c3cnn(C4CCC5(CC4)OCCO5)c3n2)cc1`, the % of control in assay [1] was determined as 91%.
In the case of `Cc1cc([C@@H](C)Nc2ccccc2C(=O)O)c2nc(N3CCOCC3)cc(=O)n2c1` [AZD-6482], in assay [2], the % of control came out at 91%.
`N#Cc1cccc(-c2c[nH]c3ncnc(N4CCOCC4)c23)c1`: the % of inhibition in assay [3] amounted to 6%; in assay [4], 1%.
On to `CC[C@@H]1[C@H](F)C(=O)N[C@@H]1COc1nccc2cc(C(N)=O)c(OC)cc12` [ZIMLOVISERTIB], for which the % of inhibition in assay [5] is -1.3%.
Regarding `Cc1cc(F)c(C(=O)Nc2cccc(-c3nncn3C(C)C)n2)cc1-n1cnc(C2CC2)c1`, the % of control in assay [6] was determined as 100%.
`CN(C)CCCOc1ccc(-c2cc(NCCCn3cccn3)nc(S(C)(=O)=O)n2)cc1` gave a dTM in assay [7] below 2 K.
In assay [8], `CCC(=O)N1CCN(c2ccc(-n3c(=O)ccc4cnc5ccc(-c6cnc7ccccc7c6)cc5c43)cc2C(F)(F)F)CC1` had a % of control of 100%.
Regarding `Cc1ccc(-c2ccc3c(ccc4sc5c(c43)NC[C@@H](C)NC5=O)n2)cn1`, the % of inhibition in assay [9] turned out to be 41%.
